Literature values as cited in US20090233885A1, “Compositions and Methods for Fat Reduction” (priority 2006, published 2009).

Assays:
[1] = total administered amount per treatment

Substance | cell specificity of effect (adipose and muscle cells) | total administered amount above which cholinergic side effects (nausea, vomiting, diarrhea, flushing, sweating, bradycardia) occur [1]
sodium deoxycholate [DC] | nonspecific effects on both adipose and muscle cells | –
phosphatidylcholine [PC] | – | exceeds 2000 mg per treatment
